How the values were obtained:
[1] = system: miRNAs in diaphragm muscle of mdx mice; experiment: qRT-PCR of individual miRNAs in diaphragm, validation set (4-month treatment, treadmill-run mdx mice); format: in vivo, mouse; conditions: 6 months of age, prednisolone 5 mg/kg, vamorolone 45 mg/kg; for expression of the other seven inflammatory miRNAs: P≤0.05
Text: Archival muscle samples (diaphragm) from two separate preclinical studies were obtained, with each trial showing a significant benefit from both prednisolone and vamorolone drug treatments (23). Prednisolone was used because it is the active form of prednisone, the current DMD standard of care. The first, “discovery set” of diaphragm muscles was from a prophylactic trial design where 2-week old (postnatal day 15) mdx or wild type control mice received oral dosing for 6 weeks with vehicle (cherry syrup), prednisolone (5 mg/kg), or vamorolone (15 mg/kg) as previously reported (23). The second, “validation set” of diaphragm muscles was from an extended trial in older mice where mdx or wild type mice were subjected to treadmill running to unmask mild phenotypes. Mice in this validation set were treated with either vehicle, prednisolone (5 mg/kg) or vamorolone (45 mg/kg) for four months beginning at two months of age (23). At the endpoint of each trial, diaphragm muscles were harvested and frozen in liquid nitrogen-cooled isopentane.
Specific miRNAs were quantified in the validation set of samples using individual TaqMan assays specific for each miRNA (ThermoFisher; Carlsbad, Calif.) according to the manufacturer's protocol. Assay IDs used include 000468, 001346, 002455, 001280, 000528, 002352, 000464, 002509, and 002248. Total RNA was converted to cDNA using multiplexed RT primers and High Capacity cDNA Reverse Transcription Kit (ThermoFisher; Carlsbad, Calif.). The cDNA was pre-amplified using TaqMan PreAmp Master Mix (ThermoFisher; Carlsbad, Calif.). The miRNAs were then quantified using individual TaqMan assays on an ABI QuantStudio 7 real time PCR machine (Applied Biosystems; Foster City, Calif.).
In the discovery set experiments, levels of each miRNA were quantified in TaqMan low-density arrays using ThermoFisher Cloud software with the Relative Quantification Application (ThermoFisher; Carlsbad, Calif.) tool. Data was analyzed by ANOVA with post-hoc comparison of each group to the mdx vehicle-treated group. […] A P-value of P≤0.05 was set as the significance threshold, without adjustment for multiple comparisons. To reduce false-positive discovery in this setting, an evidence-based approach was used to identify efficacy associated miRNAs where 1) results from the multiple groups were cross-referenced, and 2) all candidate miRNAs identified in this discovery set were then assayed in a separate validation set of mice. For the validation set experiments, levels of each individual miRNA were assayed in samples from a second, independent preclinical trial in adult mdx mice. Data from individual TaqMan Assays was quantified using QuantStudio Real-Time PCR version 1.3 software (Applied Biosystems; Foster City, Calif.). […]

[2] = biological target: T1, glucocorticoid receptor (GR) (Homo sapiens, UniProt P04150); conditions: cited from earlier work
T1 sequence (P04150 1-777): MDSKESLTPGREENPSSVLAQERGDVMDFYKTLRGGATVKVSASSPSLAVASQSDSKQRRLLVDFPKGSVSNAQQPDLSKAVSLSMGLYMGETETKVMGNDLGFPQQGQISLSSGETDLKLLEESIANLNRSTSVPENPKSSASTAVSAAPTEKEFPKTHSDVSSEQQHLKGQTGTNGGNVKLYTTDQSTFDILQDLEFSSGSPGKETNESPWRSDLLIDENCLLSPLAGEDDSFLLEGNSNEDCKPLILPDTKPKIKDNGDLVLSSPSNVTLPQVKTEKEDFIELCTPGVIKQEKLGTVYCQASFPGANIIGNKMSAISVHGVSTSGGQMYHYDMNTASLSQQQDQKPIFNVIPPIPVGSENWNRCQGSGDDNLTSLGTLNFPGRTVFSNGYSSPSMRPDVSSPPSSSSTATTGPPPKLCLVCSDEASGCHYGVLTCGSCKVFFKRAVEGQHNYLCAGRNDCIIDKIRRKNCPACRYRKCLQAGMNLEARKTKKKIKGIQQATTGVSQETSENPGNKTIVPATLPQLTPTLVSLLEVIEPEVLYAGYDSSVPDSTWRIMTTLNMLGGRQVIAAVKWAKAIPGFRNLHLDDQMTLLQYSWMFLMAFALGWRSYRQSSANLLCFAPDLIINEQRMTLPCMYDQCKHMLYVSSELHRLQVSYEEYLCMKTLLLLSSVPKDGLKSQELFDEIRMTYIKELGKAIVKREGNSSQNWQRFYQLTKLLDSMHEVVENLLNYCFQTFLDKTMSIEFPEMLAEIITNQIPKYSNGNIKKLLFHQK

[3] = preclinical mdx mouse and human Phase I trials; cited from earlier work

Compound	response of miR-301a to drug treatment [1]	expression of the other seven inflammatory miRNAs [1]	binding to the GR [2]	steroidal side effects in comparison to prednisone [3]
C[C@@H]1C[C@H]2[C@@H]3CCC4=CC(=O)C=C[C@]4(C)C3=CC[C@]2(C)[C@@]1(O)C(=O)CO [vamorolone]	did not respond to drug treatment	significant decrease towards healthy wild type levels	high affinity	avoids or has substantially reduced steroidal side effects in comparison to prednisone
C[C@]12C=CC(=O)C=C1CC[C@@H]1[C@@H]2[C@@H](O)C[C@@]2(C)[C@H]1CC[C@]2(O)C(=O)CO [prednisolone]	did not respond to drug treatment	significant decrease towards healthy wild type levels		
